From US20110015208A1, “PHARMACEUTICAL COMPOSITIONS CONTAINING DOPAMINE RECEPTOR LIGANDS AND METHODS OF TREATMENT USING DOPAMINE RECEPTOR LIGANDS” (priority 2007, published 2011)
Entries after “also recorded” stand apart in the source; their conditions may differ. Counter-ions that a name gives are not always drawn.

What was measured:
[1] = system: chronic mild stress (CMS) model of depression; assay: Chronic mild stress (CMS) model of depression, sucrose consumption (Example 2); format: in vivo, rat
Source text: This study evaluated the antidepressant effect of cariprazine hydrochloride in the chronic mild stress (CMS) model of depression. A comparison to the efficacy of the tricyciclic antidepressant compound imipramine was also made.
Male Wistar rats were adapted to laboratory and housing conditions for 3 weeks, followed by adoption to consumption of 1% sucrose solution for an additional 5 weeks before being separated into control and to-be-stressed groups.
Chronic stress was applied to the allocated group for seven weeks. The following stressors were used: food and/or water deprivation, cage tilting (45 degrees backwards), intermittent illumination, paired housing, soiled cage (250 mL of tap water in sawdust bedding), stroboscopic illumination (150 flashed per minute), no stress. All stressors were 10-14 hours in duration and were applied individually and continuously, once or twice weekly, during the day and at night.
Consumption of sucrose solution was measured in 1-hour tests conducted on all animals (i.e., controls and stressed) once weekly throughout the entire experiment. The tests were preceded by 14 hours of food and water deprivation. On the basis of their sucrose intakes following the initial 2 weeks of stress, both stressed and control animals received once-daily chronic (5 weeks) IP injections of vehicle (1% methyl cellulose, 1 mL/kg), cariprazine hydrochloride (0.0625, 0.25 or 1.0 mg/kg), or imipramine (10 mg/kg) as reference treatment. […] These animals were considered weak responders/non-responders and were eliminated from the analysis.

[2] = system: chronic mild stress (CMS) model of depression; assay: Chronic mild stress (CMS) model of depression, sucrose consumption (Example 3); format: in vivo, rat; settings: for sucrose consumption in stressed animals compared to vehicle: 5 weeks; for time until increase in sucrose intake reached statistical significance vs Week 0: stressed animals
Source text: Similar to the study described in Example 2, additional studies were undertaken to further evaluate the antidepressant effect of cariprazine hydrochloride, administered alone, or in combination with escitalopram oxalate, in a chronic mild stress model of depression
In the chronic mild stress (CMS) model, rats subjected to a variety of mild stressors for a prolonged period of time show a substantial decrease in their responsiveness to rewarding stimuli. This deficit is usually monitored by a decrease in the consumption of a 1% sucrose solution, but can also be seen in other tests, such as place preference conditioning or intracranial self-stimulation. The subsensitivity to reward appears to reflect anhedonia (inability to experience pleasure), which is a core symptom of major depressive disorders. Clinically approved antidepressants have shown activity in this animal model by reversing the effects of CMS on sucrose consumption. See, e.g., Sanchez C, Gruca P, Papp M, Behavioural Pharmacology 14, 465-470, 2003.
Male Wistar rats (Charles River, Germany) were brought into the laboratory two months before the start of the experiment. Except as described below, the animals were singly housed with food and water freely available, and were maintained on a 12-h light/dark and in a constant temperature (22±2° C.) and humidity (50±5%) conditions.
The animals were first trained to consume a 1% sucrose solution; training consisted of nine 1 h baseline tests in which sucrose was presented, in the home cage, following 14 h food and water deprivation. The sucrose intake was measured by weighing pre-weighed bottles containing the sucrose solution, at the end of the test. Subsequently, sucrose consumption was monitored, under similar conditions, at weekly intervals throughout the whole experiment.
On the basis of their sucrose intakes in the final baseline test, the animals were divided into two matched groups. One group of animals was subjected to the chronic mild stress procedure for a period of 7 consecutive weeks. Each week of stress regime consisted of: two periods of food or water deprivation, two periods of 45 degree cage tilt, two periods of intermittent illumination (lights on and off every 2 h), two periods of soiled cage (250 ml water in sawdust bedding), one period of paired housing, two periods of low intensity stroboscopic illumination (150 flashes/min), and three periods of no stress. All stressors were 10-14 h of duration and were applied individually and continuously, day and night. Control animals were housed in separate rooms and had no contact with the stressed animals. They were deprived of food and water for 14 h preceding each sucrose test, but otherwise food and water were freely available in the home cage.

[3] = system: basal locomotor activity of mice; assay: Open field, basal locomotor activity of mice (Example 4A); format: in vivo, mouse
[4] = cariprazine hydrochloride 1 mg/kg IP once daily
[5] = cariprazine hydrochloride 0.065 and 0.25 mg/kg IP once daily, 5 weeks
[6] = escitalopram oxalate 2 mg/kg IP once daily

Structure (SMILES) | onset of action: increases in sucrose drinking evident at ([1]; cariprazine hydrochloride 0.065 mg/kg IP once daily, stressed animals) | sedation ([1]; cariprazine hydrochloride 1 mg/kg IP) | sucrose consumption in control animals [1, 4] | sucrose intake in stressed animals [1, 4] | activity in the CMS model ([1]; cariprazine hydrochloride 1 mg/kg IP once daily (highest dose)) | sucrose drinking in controls (non-stressed) [1, 5] | sucrose drinking in stressed animals [1, 5] | magnitude of effect on sucrose drinking relative to imipramine ([1]; most active dose 0.065 mg/kg IP vs imipramine 10 mg/kg IP) | sucrose consumption in stressed animals compared to vehicle ([2]; cariprazine hydrochloride 0.01 mg/kg alone, IP once daily) | sucrose consumption in stressed animals compared to vehicle ([2]; cariprazine hydrochloride 0.03 mg/kg alone, IP once daily) | time until increase in sucrose intake reached statistical significance vs Week 0 ([2]; cariprazine hydrochloride 0.03 mg/kg alone, IP once daily, hydrochloride) | sucrose consumption in stressed animals compared to vehicle ([2]; cariprazine hydrochloride 0.065 mg/kg IP once daily) | time until increase in sucrose intake reached statistical significance vs Week 0 ([2]; cariprazine hydrochloride 0.065 mg/kg IP once daily, hydrochloride) | magnitude of action relative to escitalopram oxalate ([2]; cariprazine hydrochloride alone, full recovery at the end of treatment period) | effect on basal activity compared to water-treated mice ([3]; escitalopram oxalate 0.5, 2.0 and 5.0 mg/kg oral) | Total Distance Traveled [mean ± SEM] ([3]; test condition water, 2.0 mg/kg oral, 60 min pretreatment) | sucrose consumption in stressed animals compared to vehicle [2, 6] | time until increase in sucrose intake reached statistical significance vs Week 0 [2, 6]
CN(C)C(=O)N[C@H]1CC[C@H](CCN2CCN(c3cccc(Cl)c3Cl)CC2)CC1 [Cariprazine hydrochloride, trans-4-{2-[4-(2,3-dichlorophenyl)-piperazin-1-yl]-ethyl}-N,N-dimethylcarbamoyl-cyclohexylamine hydrochloride] | 1 Week | strongly sedative dose | significantly decreased | did not change | inactive | without any significant effect | dose-dependently increased sucrose drinking | greater than that of imipramine | significantly decreased | gradually increased | after four weeks of treatment; also recorded: three weeks | gradually increased | after the first week of treatment; also recorded: following the first week of administration | comparable to that of escitalopram oxalate |  |  |  | 
CN(C)CCC[C@@]1(c2ccc(F)cc2)OCc2cc(C#N)ccc21 [Escitalopram oxalate, 1-[3-(dimethyl-amino)propyl]-1-(p-fluorophenyl)-5-phthalancarbonitrile] |  |  |  |  |  |  |  |  |  |  |  |  |  |  | Neither valproate nor escitalopram oxalate (0.5, 2.0, and 5.0 mg/kg) had a significant effect | 5939 ± 369 cm/60 min | gradually increased; also recorded: fully reversed | after three weeks of treatment
